Reference: US20260242738A1, “ALK5 INHIBITORS FOR EFFICIENT DERIVATION OF MESENCHYMAL STEM CELLS FROM EMBRYONIC STEM CELLS” (SCRIPPS HEALTH, priority 2022, published 2026)

Tests used:
pluripotent stem cells = conditions: LLY-507 and AZD5153 combined, monolayer on Matrigel-coated plates; cited from earlier work
hiPSC = conditions: CHIR99021 and TTNPB used together; cited from earlier work
[1] = test system: ex vivo osteoarthritic cartilage explants; test: Ex vivo human osteoarthritic cartilage defect repair with fibrin-ECM constructs or pellets; assay type: cell-based; conditions: implanted as hydrogel or pellets, 3 weeks, serum-free chondrogenic medium with TGFβ3 10 ng/ml
Experimental: Monolayer cultured ES-MSC were suspended in a hydrogel wafer composed of collagen II (Innovative Research Inc. Novi, MI), hyaluronate (Supartz FX sodium hyaluronate, Seikagaku Corp. Tokyo, Japan), chondroitin sulfate (Sigma-Aldrich) and fibrin (Baxter Healthcare, Deerfield, IL) at a density of 20×10^6 cells per ml. The fibrinogen and thrombin components were prepared separately. To each fibrinogen component, 2 mg/ml sodium hyaluronate, 2 mg/ml chondroitin sulfate and 6 mg/ml collagen II was added (2× concentration of final). Cells were added to the thrombin component at a density of 40×10^6 cells per ml. Thrombin and fibrinogen components in individual syringes were attached to a Baxter DUO mixing syringe and extruded to form the coagulated constructs. The constructs were either directly implanted into ex vivo cartilage tissue or coagulated in 6 well tissue culture plates for 4 to 8 minutes before 4-6 ml of chondrogenic medium was added. To prevent shrinkage of the constructs during culture, the gels were held on AdminPatch microneedle arrays (AdminMed, Sunnyvale, CA) for the duration of their culture.
Osteochondral tissues were obtained from patients ranging between 60 to 70 years of age undergoing total knee arthroplasty within 4-6 hours of surgery (approved by Scripps Institutional Review Board) as previous described. Cartilage disks (6 mm in diameter and ~2-3 mm thick) were harvested from the osteochondral specimens using a sterile dermal punch. The cartilage tissue was cultured in medium consisting of DMEM (Mediatech Inc., Manassas, VA) supplemented with 10% calf serum (Omega Scientific Inc., Tarzana, CA) and 1% Penicillin-Streptomycin-Gentamycin (Life Technologies, Carlsbad, CA). Cartilage disks were maintained in 6-well plates (2-4 per well) in 8 ml medium for 72 hours before creation of the surgical defect. A flame-sterilized stainless-steel burr was used create defects approximately 2×2 mm wide and 0.5 to 1 mm deep. These defects were filled with pellets or hydrogel constructs trimmed to size using 2 mm dermal biopsy punches. […]

HADC 100 ES-MSC = test: Pellet culture chondrogenesis, histology and immunohistochemistry; assay type: cell-based, human; conditions: HADC 100 ES-MSC, 3 weeks, Safranin-O, collagen type I and II
Experimental: Monolayer-expanded ES-MSC (passage 2-5) were detached using Accutase® and 0.5×10^6 cells in 0.5 ml of chondrogenic medium were centrifuged at 900 rpm (~770 G) for 5 minutes to form high-density pellets. At least 5-6 pellets, for each ES-MSC condition, were cultured in serum-free chondrogenic medium consisting of Dulbecco's Modified Eagle Medium (Mediatech Inc., Manassas, VA), 1×ITS supplement (Sigma-Aldrich, St. Louis, MO), 100 nM Dexamethasone (Sigma), 1.25 mg/ml human serum albumin (Bayer, Leverkusen, Germany), 100 μM ascorbic acid 2-phosphate (Sigma), 1% penicillin/streptomycin/gentamycin (PSG, Gibco, Carlsbad, CA), and 10 ng/ml TGFβ3 (PeproTech, Rocky Hill, NJ). Pellets for ex vivo implantation were cultured for 3 days before implantation; pellets for histologic or gene expression analysis were maintained in culture for 3 weeks with media changes every 3 to 4 days.
Cell pellets and explants were fixed in Z-Fix (3.7% formaldehyde, Anatech Ltd., Battle Creek, MI), processed for embedding in paraffin, and cut into 4 μm-thick sections. Sections were stained with Safranin-O and Fast Green to visualize glycosaminoglycan distribution in the tissues. Alzarin Red S staining was used to detect the presence of mineralized matrix.
For assessment of collagen types I and II, sections were pretreated with pepsin (Digest-All 3, Thermo Fisher Scientific) for 9 minutes at 37° C. in a humid chamber before incubation at 4° C. for 12 to 16 hours with the following primary antibodies: rabbit anti-human collagen type I antibody (Ab 34710, Abcam, Cambridge, MA) 1 μg/ml; or mouse anti-human collagen type II (II-II6B3, Hybridoma Bank, University of Iowa) 2 μg/ml. For color development, the ImmPRESS secondary DAB (brown) or AP (red) kits (Vector Laboratories, Burlingame, CA) was used. Isotype controls were used to monitor non-specific staining.

[2] = test system: ex vivo human meniscus tissue; test: ES-MSC on growth factor conjugated collagen scaffolds implanted into ex vivo human meniscus defects; assay type: cell-based; conditions: growth factor conjugated scaffold, 2 weeks in vitro, 5 weeks in ex vivo meniscus defect; ES-MSC from SB525334
Experimental: In a similar experiment, meniscus cartilage-like tissues produced by seeding ES-MSC derived from ALK-5 inhibitor SB525334 upon blow spun collagen scaffolds were implanted into ex vivo human meniscus defects. ES-MSC were seeded upon a glutaraldehyde crosslinked pneumatospun collagen type I scaffold (3.5×1 mm disks) that was conjugated with growth factors (TGFb1, TGFb3 or PDGFbb) or unconjugated (control). After 2 weeks in differentiation medium in vitro, the disks were implanted into 3.5 mm defects formed in ex vivo human meniscus tissue and cultured for 5 weeks.

## COc1nnc2ccc(N3CCC(c4ccc(OCCN5CCN(C)C(=O)[C@H]5C)cc4)CC3)nn12 [AZD5153]
Pluripotent stem cells
  induction of MSC phenotype: successfully induced MSC phenotype

## Cc1c[nH]c(-c2cnc(NCCNc3ccc(C#N)cn3)nc2-c2ccc(Cl)cc2Cl)n1 [CHIR99021]
hiPSC
  collagen type II immunocytochemical staining of chondroprogenitors: abundant collagen type II immunocytochemical staining

## O=C(NC1CCOCC1)c1ccc(-c2cc(-c3c[nH]nc3-c3ccccn3)ccn2)cc1 [GW788388]
[1]
  cartilaginous neo-tissue formation in ex vivo osteoarthritic explants: formed equally well
HADC 100 ES-MSC
  cartilage-like tissue formation in high density pellets: also produced cartilage-like tissue

## Cc1cn(CCN2CCN(c3ccccc3-c3cc(C#N)cc(C(=O)NCCCN4CCCC4)c3)CC2)c2ccccc12 [LLY-507]
Pluripotent stem cells
  induction of MSC phenotype: successfully induced MSC phenotype

## C/C(=C\c1ccc(C(=O)O)cc1)c1ccc2c(c1)C(C)(C)CCC2(C)C [TTNPB]
hiPSC
  collagen type II immunocytochemical staining of chondroprogenitors: abundant collagen type II immunocytochemical staining

## TGFβ1: growth factor conjugated to pneumatospun collagen type I scaffold
[2]
  collagen type of neo-meniscus like ECM: higher in collagen type II

B1: PDGFbb: growth factor conjugated to pneumatospun collagen type I scaffold (protein, UniProt P01127 82-190, looked up)
Platelet-derived growth …: SLGSLTIAEPAMIAECKTRTEVFEISRRLIDRTNANFLVWPPCVEVQRCSGCCNNRNVQCRPTQVQLRPVQVRKIEIVRKKPIFKKATVTLEDHLACKCETVAAARPVT
modifications: BB homodimer; conjugated to collagen scaffold
[2]
  collagen type of neo-meniscus like ECM: both collagen type I and II rich ECM

B2: TGFb3: growth factor conjugated to pneumatospun collagen type I scaffold (protein, UniProt P10600 301-412, looked up)
Transforming growth factor …: ALDTNYCFRNLEENCCVRPLYIDFRQDLGWKWVHEPKGYYANFCSGPCPYLRSADTTHSTVLGLYNTLNPEASASPCCVPQDLEPLTILYYVGRTPKVEQLSNMVVKSCKCS
modifications: conjugated to collagen type I scaffold
[2]
  collagen type of neo-meniscus like ECM: higher in collagen type II
